Reference: patent publication US20250152584A1, “NLRP3 INFLAMMASOME INHIBITOR AND USES THEREOF” (TransThera Sciences (Nanjing), Inc., priority 2022, published 2025)
Read-outs that look alike come from different tables or passages of the source.

Legend:
[1] = target: T1, hERG potassium ion channel (Homo sapiens, UniProt Q12809); assay: Inhibition of hERG potassium ion channels, manual patch-clamp in HEK-293 cells; assay type: cell-based; conditions: HEK-293 cells stably expressing hERG, whole-cell manual patch-clamp, room temperature
T1 construct: expressed in transfected cells
T1 sequence (Q12809 whole entry): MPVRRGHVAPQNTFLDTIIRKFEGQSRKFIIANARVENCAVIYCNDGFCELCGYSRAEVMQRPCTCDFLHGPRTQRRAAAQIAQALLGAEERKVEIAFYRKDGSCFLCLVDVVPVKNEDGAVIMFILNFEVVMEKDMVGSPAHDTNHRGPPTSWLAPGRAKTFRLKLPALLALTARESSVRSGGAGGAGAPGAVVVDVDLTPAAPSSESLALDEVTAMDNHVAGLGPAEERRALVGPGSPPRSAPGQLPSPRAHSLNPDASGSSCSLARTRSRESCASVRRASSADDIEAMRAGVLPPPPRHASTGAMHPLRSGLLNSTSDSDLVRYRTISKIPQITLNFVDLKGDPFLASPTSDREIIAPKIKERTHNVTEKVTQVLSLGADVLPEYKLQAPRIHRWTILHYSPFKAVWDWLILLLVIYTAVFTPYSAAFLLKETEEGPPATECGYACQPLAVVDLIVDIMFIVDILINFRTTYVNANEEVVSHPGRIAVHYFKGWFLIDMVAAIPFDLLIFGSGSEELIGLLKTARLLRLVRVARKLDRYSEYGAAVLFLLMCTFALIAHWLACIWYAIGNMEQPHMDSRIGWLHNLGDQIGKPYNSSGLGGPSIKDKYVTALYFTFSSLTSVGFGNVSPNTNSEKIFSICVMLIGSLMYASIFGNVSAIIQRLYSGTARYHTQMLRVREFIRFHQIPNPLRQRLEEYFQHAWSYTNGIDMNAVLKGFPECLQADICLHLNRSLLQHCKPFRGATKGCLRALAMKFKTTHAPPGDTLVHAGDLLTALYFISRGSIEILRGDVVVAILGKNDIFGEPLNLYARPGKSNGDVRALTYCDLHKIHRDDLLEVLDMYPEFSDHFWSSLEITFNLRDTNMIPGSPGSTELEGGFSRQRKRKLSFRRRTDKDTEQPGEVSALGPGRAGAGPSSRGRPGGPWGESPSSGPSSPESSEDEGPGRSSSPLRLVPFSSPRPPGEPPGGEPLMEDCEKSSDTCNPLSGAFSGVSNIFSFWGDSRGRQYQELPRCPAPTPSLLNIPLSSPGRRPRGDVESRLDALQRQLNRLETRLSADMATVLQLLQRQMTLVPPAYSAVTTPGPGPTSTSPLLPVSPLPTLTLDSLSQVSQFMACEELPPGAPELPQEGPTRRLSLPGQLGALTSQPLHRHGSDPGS
Method: Experimental Example 5: Test for Inhibition of hERG Potassium Ion Channels by Compound
Experimental Objective: To study the inhibitory effect of the compound on hERG potassium ion channels by a manual patch-clamp technique. […]
• 2.1 Blank control: DMSO stock. • 2.2 Positive control: 10 mM stock formulated from a appropriate amount of Cisapride and dimethyl sulfoxide (DMSO). The stock was aliquoted and stored at −20° C. • 2.3 Compound: An appropriate amount of compound was weighed; the volume of DMSO required was calculated according to the formula: DMSO volume=actual amount×purity (content)/(molecular weight×theoretical concentration), and the corresponding volume of DMSO was pipetted; then, the weighed compound was dissolved with the pipetted DMSO, and the mass of DMSO was measured at the same time; and finally, the actual stock concentration was calculated according to the final amount of DMSO used. […]

[2] = Pharmacokinetic study in beagles; assay type: in vivo; conditions: beagle, dog, plasma, male beagles
Method: Experimental Example 4: Pharmacokinetic Study of Compounds in Beagles
Compound 174 was prepared into a solution with a mixed solvent formulated from 5% dimethyl sulfoxide, 20% (30% solutol) and 75% normal saline; the solution of this compound was administered to male beagles by gavage at a dose of 1.0 mg/kg; and the time points for blood collection were: 15 min, 30 min, 1 b, 2 h, 4 h, 6 b, 8 h, 10 h and 24 h. The solution of the compound was administered to male beagles by intravenous bolus at a dose of 1.0 mg/kg, and the time points for blood collection were as follows: 5 min, 15 min, 30 min, 1 h, 2 h, 4 h, 6 h, 8 h, 10 h, and 24 h.
Compound 177 and Compound 195 were prepared into solutions with a mixed solvent formulated from 5% dimethyl sulfoxide, 20% (30% solutol) and 75% normal saline, respectively; the solutions of these compounds were administered to male beagles by gavage at a dose of 1.0 mg/kg; and the time points for blood collection were: 15 min, 30 min, 1 h, 2 h, 4 h, 6 h, 8 h, 10 h and 24 h. The solution of the compound was administered to male beagles by intravenous bolus at a dose of 1.0 mg/kg, and the time points for blood collection were as follows: 5 min, 15 min, 30 min, 1 h, 2 h, 4 h, 6 h, 8 h, 10 h, and 24 h.
Approximately 400 μL of blood was collected through the medial cephalic vein of the forelimb and placed in an anticoagulant tube containing EDTA-K2. Blood samples were centrifuged at 12,000 rpm for 10 min at 4° C. to obtain plasma samples, and plasma was prepared within 30 min after blood collection. The plasma was stored in a −80° C. freezer before testing.

AUC(0-t) ([2]; po, gavage 1.0 mg/kg, read-out: AUClast po (area under the drug-time curve for 0-24 h)) | Cmax ([2]; po, gavage 1.0 mg/kg, read-out: Cmax po (peak concentration)) | Tmax ([2]; po, gavage 1.0 mg/kg, read-out: Tmax po (peak time of plasma concentration)) | half-life ([2]; po, gavage 1.0 mg/kg, read-out: tz1/2 po (terminal elimination half-life) (converted)) | AUC(0-t) ([2]; intravenous bolus 1.0 mg/kg, read-out: AUClast iv (area under the drug-time curve for 0-24 h)) | clearance ([2]; intravenous bolus 1.0 mg/kg, read-out: Cl—obs iv (clearance rate) (converted)) | Vd ([2]; intravenous bolus 1.0 mg/kg, read-out: Vss iv (volume of distribution)) | half-life ([2]; intravenous bolus 1.0 mg/kg, read-out: tz1/2 iv (terminal elimination half-life) (converted)) | bioavailability ([2]; iv 1.0 mg/kg / po 1.0 mg/kg, read-out: F % (absolute bioavailability)) | Compound | IC50 [1]
– | – | – | – | – | – | – | – | – | C#Cc1ccc(-c2nnc(N[C@@H]3CCCN(C)C3)cc2C)c(O)c1 [Compound 54, (R)-5-ethynyl-2-(4-methyl-6-((1-methylpiperidin-3-yl)amino)pyridazin-3-yl)phenol] | > 10 µM
1660 ng·h/mL | 105 ng/mL | 4 h | 14.7 h | 1980 ng·h/mL | 5.53 mL/min/kg | 7.39 L/kg | 15.8 h | 83.8% | CC#Cc1ccc(-c2nnc(N[C@@H]3CCCN(C)C3)cc2C)c(O)c1 [Compound 174, (R)-2-(4-methyl-6-((1-methylpiperidin-3-yl)amino)pyridazin-3-yl)-5-(prop-1-yn-1-yl)phenol] | –
